Experimental data as given in US20100298141A1, “SUBSTITUTED PYRIDINE N-OXIDE HERBICIDES” (E. I. DU PONT DE NEMOURS AND COMPANY, priority 2007, published 2010).

Columns and labels:
giant foxtail [1] = experiment: Test A pre-/postemergence greenhouse test; assay type: in vivo, Setaria faberi; details: for Foxtail, Giant plant response rating: 0 to 100 scale; for Plant response rating, Foxtail, Giant: 0 to 100 scale where 0 is no effect and 100 is complete control
Outline: (§1)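 Untreated controls served as the reference for visual injury ratings taken about ten days after spraying. The non-phytotoxic solvent/surfactant formulation was applied preemergence to seeded loam and sand and postemergence to plants two to ten cm high.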

morningglory = experiment: Test A pre-/postemergence greenhouse test; assay type: in vivo, Ipomoea spp.; details: for Morningglory plant response rating: 0 to 100 scale; for Plant response rating, Morningglory: 0 to 100 scale where 0 is no effect and 100 is complete control
Outline: as §1

redroot pigweed = experiment: Test A pre-/postemergence greenhouse test; assay type: in vivo, Amaranthus retroflexus; details: for Pigweed plant response rating: 0 to 100 scale; for Plant response rating, Pigweed: 0 to 100 scale where 0 is no effect and 100 is complete control
Outline: as §1

wheat [2] = experiment: Test A pre-/postemergence greenhouse test; assay type: in vivo, Triticum aestivum; details: for Wheat plant response rating: 0 to 100 scale; for Plant response rating, Wheat: 0 to 100 scale where 0 is no effect and 100 is complete control
Outline: as §1

blackgrass = experiment: Test C pre-/postemergence test; assay type: in vivo, Alopecurus myosuroides; details: for Plant response rating (0 to 100), Blackgrass: 250 g ai/ha
Outline: (§2)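 Seeds were planted and treated preemergence with test chemical in a non-phytotoxic solvent mixture containing surfactant. Postemergence applications of the same formulation went onto plants 2 to 18 cm tall (1- to 4-leaf stage). A dash marks no test result.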

downy brome = experiment: Test C pre-/postemergence test; assay type: in vivo, Bromus tectorum; details: for Plant response rating (0 to 100), Bromegrass, Downy: 250 g ai/ha
Outline: as §2

wheat [3] = experiment: Test C pre-/postemergence test; assay type: in vivo, Triticum aestivum
Outline: as §2

wild oat = experiment: Test C pre-/postemergence test; assay type: in vivo, Avena fatua
Outline: as §2

catchweed bedstraw = experiment: Test C pre-/postemergence test; assay type: in vivo, Galium aparine
Outline: as §2

Surinam grass = experiment: Test C pre-/postemergence test; assay type: in vivo, Brachiaria decumbens
Outline: as §2

cocklebur = experiment: Test C pre-/postemergence test; assay type: in vivo, Xanthium strumarium; details: for Plant response rating (0 to 100), Cocklebur: 250 g ai/ha
Outline: as §2

woolly cupgrass = experiment: Test C pre-/postemergence test; assay type: in vivo, Eriochloa villosa; details: for Plant response rating (0 to 100), Cupgrass, Woolly: 250 g ai/ha
Outline: as §2

giant foxtail [4] = experiment: Test C pre-/postemergence test; assay type: in vivo, Setaria faberii; details: for Plant response rating (0 to 100), Foxtail, Giant: 250 g ai/ha
Outline: as §2

kochia = experiment: Test C pre-/postemergence test; assay type: in vivo, Kochia scoparia
Outline: as §2

lambsquarters = experiment: Test C pre-/postemergence test; assay type: in vivo, Chenopodium album
Outline: as §2

eastern black nightshade = experiment: Test C pre-/postemergence test; assay type: in vivo, Solanum ptycanthum
Outline: as §2

common ragweed = experiment: Test C pre-/postemergence test; assay type: in vivo, Ambrosia elation
Outline: as §2

[5] = system: common (oilseed) sunflower; experiment: Test C pre-/postemergence test; assay type: in vivo, Helianthus annuus
Outline: as §2

velvetleaf = experiment: Test C pre-/postemergence test; assay type: in vivo, Abutilon theophrasti
Outline: as §2

[6] = Postemergence, 125 g ai/ha, 0 is no effect, 100 is complete control
[7] = Postemergence, 500 g ai/ha, 0 is no effect, 100 is complete control
[8] = Preemergence, 125 g ai/ha, 0 no effect, 100 complete control
[9] = 31 g ai/ha, Preemergence, scale 0 to 100
[10] = 62 g ai/ha, preemergence, scale 0 (no effect) to 100 (complete control)
[11] = preemergence, 125 g ai/ha, scale 0 (no effect) to 100 (complete control)
[12] = 62 g ai/ha, Preemergence, scale 0 to 100
[13] = Preemergence, 31 g ai/ha, scale 0 to 100 (0 no effect, 100 complete control)

Cn1nc(C(F)(F)F)c(C[S+]([O-])c2cccc[n+]2[O-])c1Cl (centres unmarked) [Compound 8]
40: Oat, Wild plant response rating (wild oat; [11]) | Kochia plant response rating (kochia; [9])
98: Cupgrass, Woolly plant response rating (woolly cupgrass; [10]) | Foxtail, Giant plant response rating (giant foxtail [4]; [10]) | Lambsquarters plant response rating (lambsquarters; [10]) | Velvetleaf plant response rating (velvetleaf; [11])
0: Blackgrass plant response rating (blackgrass; [9]) | Blackgrass plant response rating (blackgrass; [10]) | Bromegrass, Downy plant response rating (downy brome; [9]) | Bromegrass, Downy plant response rating (downy brome; [10]) | Oat, Wild plant response rating (wild oat; [9]) | Galium plant response rating (catchweed bedstraw; [9]) | Cocklebur plant response rating (cocklebur; [9]) | Cocklebur plant response rating (cocklebur; [10]) | Cocklebur plant response rating (cocklebur; [11])
70: Morningglory plant response rating (morningglory; [7]) | Plant response rating, Wheat (wheat [2]; Preemergence, 500 g ai/ha) | Cupgrass, Woolly plant response rating (woolly cupgrass; [9])
20: Pigweed plant response rating (redroot pigweed; [6]) | Oat, Wild plant response rating (wild oat; [10])
45: Kochia plant response rating (kochia; [10]) | Velvetleaf plant response rating (velvetleaf; [10])
50: Wheat plant response rating (wheat [3]; [11]) | Ragweed plant response rating (common ragweed; [9])
30: Wheat plant response rating (wheat [2]; [6]) | Wheat plant response rating (wheat [3]; [10]) | Sunflower plant response rating [5, 10]
100: Foxtail, Giant plant response rating (giant foxtail [1]; [8]) | Plant response rating, Foxtail, Giant (giant foxtail [1]; Preemergence, 500 g ai/ha) | Pigweed plant response rating (redroot pigweed; [8]) | Plant response rating, Pigweed (redroot pigweed; Preemergence, 500 g ai/ha) | Plant response rating (0 to 100), Blackgrass (blackgrass; Preemergence) | Blackgrass plant response rating (blackgrass; [11]) | Galium plant response rating (catchweed bedstraw; [10]) | Galium plant response rating (catchweed bedstraw; [11]) | Plant response rating (0 to 100), Surinam Grass (Surinam grass; Preemergence, 250 g ai/ha) | Surinam Grass plant response rating (Surinam grass; [11]) | Plant response rating (0 to 100), Cupgrass, Woolly (woolly cupgrass; Preemergence) | Cupgrass, Woolly plant response rating (woolly cupgrass; [11]) | Plant response rating (0 to 100), Foxtail, Giant (giant foxtail [4]; Preemergence) | Foxtail, Giant plant response rating (giant foxtail [4]; [11]) | Plant response rating (0 to 100), Kochia (kochia; Preemergence, 250 g ai/ha) | Kochia plant response rating (kochia; [11]) | Plant response rating (0 to 100), Lambsquarters (lambsquarters; Preemergence, 250 g ai/ha) | Lambsquarters plant response rating (lambsquarters; [11]) | Plant response rating (0 to 100), Nightshade (eastern black nightshade; Preemergence, 250 g ai/ha) | Nightshade plant response rating (eastern black nightshade; [11]) | Plant response rating (0 to 100), Sunflower ([5]; Preemergence, 250 g ai/ha) | Plant response rating (0 to 100), Velvetleaf (velvetleaf; Preemergence, 250 g ai/ha)
90: Foxtail, Giant plant response rating (giant foxtail [1]; [7]) | Morningglory plant response rating (morningglory; [8]) | Plant response rating, Morningglory (morningglory; Preemergence, 500 g ai/ha) | Plant response rating (0 to 100), Ragweed (common ragweed; Preemergence, 250 g ai/ha)
85: Plant response rating (0 to 100), Bromegrass, Downy (downy brome; Preemergence) | Surinam Grass plant response rating (Surinam grass; [10]) | Foxtail, Giant plant response rating (giant foxtail [4]; [9]) | Nightshade plant response rating (eastern black nightshade; [10])
80: Foxtail, Giant plant response rating (giant foxtail [1]; [6]) | Bromegrass, Downy plant response rating (downy brome; [11]) | Plant response rating (0 to 100), Wheat (wheat [3]; Preemergence, 250 g ai/ha) | Lambsquarters plant response rating (lambsquarters; [9]) | Nightshade plant response rating (eastern black nightshade; [9])
60: Morningglory plant response rating (morningglory; [6]) | Pigweed plant response rating (redroot pigweed; [7]) | Wheat plant response rating (wheat [2]; [7]) | Wheat plant response rating (wheat [2]; [8]) | Plant response rating (0 to 100), Oat, Wild (wild oat; Preemergence, 250 g ai/ha) | Ragweed plant response rating (common ragweed; [10]) | Ragweed plant response rating (common ragweed; [11]) | Sunflower plant response rating [5, 11]
5: Plant response rating (0 to 100), Cocklebur (cocklebur; Preemergence)

Cn1nc(C(F)(F)F)c(C[S+]([O-])c2cc(C(F)(F)F)cc[n+]2[O-])c1Cl (racemic) [Compound 34]
35: Cupgrass, Woolly plant response rating (woolly cupgrass; [12]) | Plant response rating, Cupgrass, Woolly (woolly cupgrass; [13])
65: Plant response rating (0 to 100), Blackgrass (blackgrass; Preemergence)
70: Pigweed plant response rating (redroot pigweed; [7]) | Velvetleaf plant response rating (velvetleaf; [12])
50: Morningglory plant response rating (morningglory; [8]) | Plant response rating, Wheat (wheat [2]; Preemergence, 500 g ai/ha) | Blackgrass plant response rating (blackgrass; [11]) | Plant response rating (0 to 100), Foxtail, Giant (giant foxtail [4]; Preemergence) | Lambsquarters plant response rating (lambsquarters; [12])
40: Oat, Wild plant response rating (wild oat; [12]) | Plant response rating, Velvetleaf (velvetleaf; [13])
30: Morningglory plant response rating (morningglory; [7]) | Wheat plant response rating (wheat [2]; [8]) | Blackgrass plant response rating (blackgrass; [12]) | Plant response rating, Blackgrass (blackgrass; [13]) | Plant response rating (0 to 100), Cocklebur (cocklebur; Preemergence)
80: Plant response rating, Morningglory (morningglory; Preemergence, 500 g ai/ha)
85: Plant response rating, Nightshade (eastern black nightshade; [13])
75: Plant response rating (0 to 100), Cupgrass, Woolly (woolly cupgrass; Preemergence)
0: Morningglory plant response rating (morningglory; [6]) | Wheat plant response rating (wheat [2]; [6]) | Wheat plant response rating (wheat [2]; [7]) | Bromegrass, Downy plant response rating (downy brome; [12]) | Plant response rating, Bromegrass, Downy (downy brome; [13]) | Plant response rating, Wheat (wheat [3]; [13]) | Plant response rating, Oat, Wild (wild oat; [13]) | Plant response rating, Galium (catchweed bedstraw; [13]) | Surinam Grass plant response rating (Surinam grass; [12]) | Plant response rating, Surinam Grass (Surinam grass; [13]) | Cocklebur plant response rating (cocklebur; [12]) | Plant response rating, Cocklebur (cocklebur; [13]) | Cocklebur plant response rating (cocklebur; [11]) | Kochia plant response rating (kochia; [12]) | Plant response rating, Kochia (kochia; [13]) | Plant response rating, Lambsquarters (lambsquarters; [13]) | Sunflower plant response rating [5, 12] | Plant response rating, Sunflower [5, 13]
20: Plant response rating (0 to 100), Bromegrass, Downy (downy brome; Preemergence) | Bromegrass, Downy plant response rating (downy brome; [11]) | Foxtail, Giant plant response rating (giant foxtail [4]; [12]) | Plant response rating, Foxtail, Giant (giant foxtail [4]; [13])
45: Ragweed plant response rating (common ragweed; [12]) | Plant response rating, Ragweed (common ragweed; [13])
100: Foxtail, Giant plant response rating (giant foxtail [1]; [8]) | Plant response rating, Foxtail, Giant (giant foxtail [1]; Preemergence, 500 g ai/ha) | Pigweed plant response rating (redroot pigweed; [8]) | Plant response rating, Pigweed (redroot pigweed; Preemergence, 500 g ai/ha) | Plant response rating (0 to 100), Galium (catchweed bedstraw; Preemergence, 250 g ai/ha) | Nightshade plant response rating (eastern black nightshade; [12])
10: Foxtail, Giant plant response rating (giant foxtail [1]; [6]) | Wheat plant response rating (wheat [3]; [12])
60: Foxtail, Giant plant response rating (giant foxtail [1]; [7]) | Pigweed plant response rating (redroot pigweed; [6])
